# Assay results taken from BindingDB's records for PubMed 8022403 (National Institute of Diabetes, Digestive and Kidney …, 1994).
# pKi: −log10 of the molar value.
# Legend:
# [1] = target: Adenosine receptor A2a (Rattus norvegicus, UniProt P30543)
# [2] = target: T1, Adenosine receptor A1 (Rattus norvegicus, UniProt P25099)
# T1 sequence (P25099 whole entry): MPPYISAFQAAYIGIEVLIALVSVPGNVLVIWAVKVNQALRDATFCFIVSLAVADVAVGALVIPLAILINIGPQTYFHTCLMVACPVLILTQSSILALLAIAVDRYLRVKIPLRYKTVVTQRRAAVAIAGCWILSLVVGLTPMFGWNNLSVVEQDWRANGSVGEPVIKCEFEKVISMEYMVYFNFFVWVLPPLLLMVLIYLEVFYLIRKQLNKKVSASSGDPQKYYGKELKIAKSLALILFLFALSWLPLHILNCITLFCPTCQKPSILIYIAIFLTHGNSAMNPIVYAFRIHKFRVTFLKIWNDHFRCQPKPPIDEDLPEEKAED
# Sequence of Adenosine receptor A2a (P30543 whole entry): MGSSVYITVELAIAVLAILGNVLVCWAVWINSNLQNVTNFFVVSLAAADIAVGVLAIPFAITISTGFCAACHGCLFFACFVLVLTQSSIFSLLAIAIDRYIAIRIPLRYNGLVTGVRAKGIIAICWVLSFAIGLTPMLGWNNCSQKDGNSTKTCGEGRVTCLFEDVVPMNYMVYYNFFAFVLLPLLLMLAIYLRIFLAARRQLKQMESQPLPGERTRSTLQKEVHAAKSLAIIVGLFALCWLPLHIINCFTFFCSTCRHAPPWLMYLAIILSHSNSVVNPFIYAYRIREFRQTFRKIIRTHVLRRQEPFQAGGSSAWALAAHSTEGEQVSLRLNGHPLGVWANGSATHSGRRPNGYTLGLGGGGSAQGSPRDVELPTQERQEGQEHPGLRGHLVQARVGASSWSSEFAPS
pKi [1],pKi [2],SMILES
4.41,,"NCC1OC(n2cnc3c(N)ncnc32)C(O)C1O (stereo not given) [2-Aminomethyl-5-(6-amino-purin-9-yl)-tetrahydro-furan-3,4-diol]"
< 5.00,< 5.00,CO[C@@H]1[C@H](O)[C@@H](CO)O[C@H]1n1cnc2c(N)ncnc21
4.07,4.56,Nc1nc2c(ncn2[C@H]2O[C@@H](COP(=O)(O)O)[C@H](O)[C@@H]2O)c(=O)[nH]1 [NSC_6804]
< 5.00,< 5.00,Nc1ncnc2c1ncn2[C@@H]1O[C@H](CO)C[C@H]1O [3'-Deoxyadenosine (cordycepin)]
< 5.00,< 5.00,Nc1ncnc2c1ncn2[C@H]1C[C@H](O)[C@@H](CO)O1 [2'deoxyadenosine]
< 5.00,< 5.00,O=c1[nH]c(=O)c2ncn(C3OC(COP(=O)(O)O)C(O)C3O)c2[nH]1 (stereo not given) [CAS_146-80-5]
4.64,< 5.00,Nc1ncnc2c1nc(Br)n2C1OC(CO)C(O)C1O (stereo not given) [8-Bromoadenosine]
,4.57,Nc1ncnc2c1N([C@H]1O[C@@H](CO)[C@H](O)[C@@H]1O)CN2 [T-7-Riboside]
< 5.00,,Nc1ncnc2c1ncn2[C@@H]1O[C@H](COP(=O)(O)O)[C@@H](O)[C@H]1O [adenosine 5 -monophosphate]
< 5.00,< 5.00,Nc1ccn([C@@H]2O[C@H](COP(=O)(O)OP(=O)(O)O)[C@@H](O)[C@H]2O)c(=O)n1 [5'-CDP]
< 5.00,< 5.00,Cn1cnc2[nH]c(=O)[nH]c(=O)c21 [7-Methylxanthine]
,< 5.00,OCC1OC(n2cnc3c(S)ncnc32)C(O)C1O (stereo not given) [NSC_1867]
< 5.00,< 5.00,"Cn1c(=O)[nH]c2c(ncn2C)c1=O [1,9-Dimethylxanthine]"
< 5.00,< 5.00,"Cn1cnc2c(=O)[nH]c(=O)n(C)c21 [3,9-dimethyl-3,9-dihydro-1h-purine-2,6-dione]"
< 5.00,< 5.00,Nc1ncnc2c1ncn2[C@@]1(CO)O[C@H](CO)[C@@H](O)[C@H]1O [beta-D-Psicofuranosyladenine]
< 5.00,6.34,CCCCCC[C@H]([C@H](C)O)n1cnc2c(N)ncnc21 (relative stereo) [3-(6-amino-9H-purin-9-yl)nonan-2-ol]
< 5.00,< 5.00,O=c1[nH]c(=O)c2[nH]c(Cl)nc2[nH]1 [CAS_13548-68-0]

SMILES,pKi [1],pKi [2]
"Nc1nc(S)c2ncn(C3OC(CO)C(O)C3O)c2n1 (stereo not given) [2-azanyl-9-[5-(hydroxymethyl)-3,4-bis(oxidanyl)oxolan-2-yl]-3H-purine-6-thione]",< 5.00,< 5.00
CCNC(=O)[C@H]1O[C@@H](n2cnc3c(=O)[nH]cnc32)[C@H](O)[C@@H]1O [5'-N-ethylcarboxamidoinosine],< 5.00,< 5.00
"C[S+](CC[C@H](N)C(=O)[O-])C[C@H]1O[C@@H](n2cnc3c(N)ncnc32)[C@H](O)[C@@H]1O (stereo partly drawn) [(2S)-2-amino-4-({[(2S,3S,4R,5R)-5-(6-amino-9H-purin-9-yl)-3,4-dihydroxyoxolan-2-yl]methyl}(methyl)sulfanylium)butanoate]",5.56,6.17
"O=c1ccn(C2OC(COP(=O)(O)OP(=O)(O)O)C(O)C2O)c(=O)[nH]1 (stereo not given) [hydrogen ({[5-(2,4-dioxo-1,2,3,4-tetrahydropyrimidin-1-yl)-3,4-dihydroxyoxolan-2-yl]methylphosphonato}oxy)phosphonate]",< 5.00,< 5.00
Cc1cn([C@H]2C[C@H](O)[C@@H](CO)O2)c(=O)[nH]c1=O [thymidine],< 5.00,< 5.00
